Data set [1] in a line: in vitro. Conditions: male, CD-1, mouse, plasma.
Data set [2] can be described thus: in vitro. Conditions: both, human, plasma.
For data set [3] the following is noted: cynomolgus monkey, in vivo, po; for AUC0->24h / CL / Cmax / Tmax / t1/2: 0.4 mmol/kg.
The nature of data set [4]: in vitro. To be noted: monkey, plasma.
A short description of data set [5]: in vitro. Conditions: male, CD-1, mouse, microsomes, pH 7.4.
Data set [6] is described as follows: in vitro. Conditions: male, Sprague-Dawley, rat, plasma.
A short description of data set [7]: in vitro. To be noted: dog, plasma.
The conditions of data set [8]: human, in vivo.
The nature of the next data set: in vivo. Conditions: ICR (CD-1), mouse, 15 mg/kg.
The nature of data set [9]: in vitro. Conditions: both, human, microsomes, pH 7.4.
Data set [10] in a line: in vitro. Conditions: monkey, microsomes, pH 7.4.

Read-outs that look alike come from different tables or passages of the source.

Consider `CC(C)C(=O)OC[C@H]1O[C@@H](n2ccc(NO)nc2=O)[C@H](OC(=O)C(C)C)[C@@H]1OC(=O)C(C)C` [EIDD-2800], for which the figures for the half-life at 1 μM in “in vitro [1]”, in “in vitro [2]” and in “in vitro [4]” were 1 min, 1 min and 2 min, respectively. Further, the “F*” value in data set [3] (female) is listed as about 16%; in data set [3] (male), about 27%. In addition, the half-life in the data set “in vitro [5]” was under 1 min.

On to `CC(C)C(=O)OC[C@H]1O[C@@H](n2ccc(NO)nc2=O)[C@H](O)[C@@H]1O` [EIDD-2801], for which the half-life at 1 μM was determined as 1 min in the data set “in vitro [1]”; 1 min in “in vitro [6]”; 63 min in “in vitro [2]”; 192 min in “in vitro [7]”; 24 min in the data set “in vitro [4]”. Also, the “AUC0−>t” value in the data set on Vero cells worked out at 1724 pmol · h/M cells; with Huh-7 cells, 1025 pmol · h/M cells; with HepG2 cells, 360.3 pmol · h/M cells; in the data set with CEM cells, 85.3 pmol · h/M cells. Besides, the Cmax in the data set with Vero cells amounted to 121.2 pmol/M Cells; in the data set with Huh-7 cells, 77.5 pmol/M Cells; with HepG2 cells, 18.9 pmol/M Cells; in the data set with CEM cells, 5.4 pmol/M Cells. Further, the “F*” value was about 26% in data set [3] (female) and about 22% in data set [3] (male). The hematological parameters entry in data set [8] was “no clinically significant changes in hematological parameters”.

On to `CC(C)[C@H](N)C(=O)OC[C@H]1O[C@@H](n2ccc(NO)nc2=O)[C@H](O)[C@@H]1O` [EIDD-2898], for which, in “in vitro [1]”, the half-life at 1 μM worked out at 144 min. Moreover, the half-life at 1 μM in “in vitro [2]” amounted to 198 min. In addition, in “in vivo”, the AUC(0-inf) worked out at 8.23 µM·h, the Cmax turned out to be 23.1 µM, the time to peak (Tmax) stood at 4.8 min and the half-life is 20.4 min. In addition, in data set [3] (female), the “F*” value is on record as about 15%, the “AUC0->24h” value is 26.9 ± 4.8 µM·h, the CL was found to be 265 ± 53.3 mL/min/kg and the Cmax was determined as 15.9 ± 8.1 µM. Besides, in [3] (female), the Tmax was 78 ± 30 min and the t1/2 came to 33 ± 15 min. Moreover, in data set [3] (male), the “F*” value is about 18%, the “AUC0->24h” value worked out at 26.1 ± 5.2 µM·h, the CL was found to be 273 ± 51.7 mL/min/kg and the Cmax amounted to 9.1 ± 2.7 µM. Also, in data set [3] (male), the Tmax turned out to be 138 ± 57.6 min and the t1/2 is 31.8 ± 9.6 min. Further, in the data set “in vitro [9]”, the half-life was 14 min. Also, the half-life in “in vitro [10]” worked out at 13 min. For the same compound, the half-life at 1 μM in “in vitro [4]” came out at 138 min.

For orientation: half-life means the time in which the quantity being followed falls by half. The low end stands for fast loss, the high end for slow loss. One may read the AUC(0-inf) as total exposure, with the tail of the curve extrapolated. A lower AUC(0-inf) goes with low exposure. The term Tmax denotes the time at which the peak concentration occurs.

(Values after patent US20250064844A1 (Emory University, priority 2020, published 2025).)
